Results taken from PMC4046051, “Two M-T hook residues greatly improve the antiviral activity and resistance profile of the HIV-1 fusion inhibitor SC29EK” (Retrovirology, 2014).
Peptide text beside a SMILES is read from it.

Columns and labels:
[1] = target: T1, six-helical bundle (6-HB) of N36 and biotinylated-C34 (Human immunodeficiency virus type 1 group M subtype B, UniProt P04578); assay: Inhibition of 6-HB formation, NC-1 capture ELISA; type: biochemical, HIV-1; conditions: biotinylated-C34 0.1 μM, N36 0.1 μM, 30 min room temperature, 3 independent experiments
T1 construct: made in house; host or cells: chemical synthesis (solid-phase FMOC), no expression host
Experimental: The 6-HB core-specific monoclonal antibody NC-1 was obtained from Dr. Shibo Jiang in the New York Blood Center (New York, NY) through the ARRRP, Division of AIDS, NIAID, National Institute of Health. The inhibitory activity of SC29EK or MT-SC29EK on the 6-HB formation was measured by a modified ELISA as previously described. Briefly, a 96-well polystyrene plate was coated with 2 μg/ml NC-1 in 0.1 M Tris buffer (pH 8.8). A tested peptide at graded concentrations was mixed with the biotinylated-C34 (0.1 μM) and incubated with N36 (0.1 μM) at room temperature for 30 min. The mixture was then added to the NC-1-coated plate, followed by incubation for 30 min and washing with a washing buffer (PBS containing 0.1% Tween 20) three times. Then horseradish peroxidase (HRP)-labeled streptavidin (Invitrogen) and the substrate 3,3,5,5- tetramethylbenzidine (Sigma) were sequentially added. Absorbance at 450 nm (A450) was measured using an ELISA reader.

HIV-1 NL4-3 V38A = assay: Inhibition of T20-resistant HIV-1 variants: V38A; type: cell-based
Experimental: (§1) The inhibition of peptides on the HIV-1 entry was determined by single-cycle infection assay as described previously. Briefly, HIV-1 pseudovirus was generated by cotransfecting 293 T cells with an Env-expressing plasmid and a backbone plasmid pSG3^Δenv that encodes Env-defective, luciferase-expressing HIV-1 genome. The supernatants were harvested and filtered 48 h after transfection and 50% tissue culture infectious dose (TCID50) was determined in TZM-bl cells. The peptides were prepared with 3-fold dilutions and mixed with 100 TCID50 viruses and then incubated 1 h at room temperature. The mixture was added to TZM-bl cells (10^4/well) and incubated 48 h at 37°C. The luciferase activity was measured using luciferase assay reagents and a Luminescence Counter (Promega).

HIV-1 NL4-3 V38M = assay: Inhibition of T20-resistant HIV-1 variants: V38M; type: cell-based
Experimental: as §1

N36 mutant V38A = assay: CD thermal denaturation of 6-HB formed with N36 mutant V38A; type: binding, HIV-1; conditions: CHR peptide + N36 V38A mutant, each 10 μM in PBS
Experimental: (§2) CD spectroscopy was performed according to our protocols described previously. […] The final concentration of each peptide was 10 μM in PBS buffer (pH 7.2). The CD spectra were acquired on a Jasco spectropolarimeter (model J-815) using a 1 nm bandwidth with a 1 nm step resolution from 195 to 260 nm at room temperature. The spectra were corrected by subtraction of a blank corresponding to the solvent. Data were averaged over three accumulations. The α-helical content was calculated from the CD signal by dividing the mean residue ellipticity [θ] at 222 nm by the value expected for 100% helix formation (-33,000 degrees.cm^2.dmol^-1). The thermal denaturation experiment was performed by monitoring the change in ellipticity [θ] at 222 nm at the increasing temperature (20–98°C) using temperature controller. The temperature was increased at a rate of 1.2°C per min; data were acquired at a 1 nm bandwidth at 222 nm at a frequency of 0.25 Hz. The melting curve was smoothened, and the midpoint of the thermal unfolding transition (Tm) values were taken as the maximum of the derivative d [θ]222/dT. The Tm value was detected at a peptide concentration of 10 μM in PBS buffer.

HIV-1 NL4-3 WT = assay: Inhibition of T20-resistant HIV-1 variants panel: WT; type: cell-based
Experimental: as §1

[2] = system: molecular clone of HIV-1NL4-3; assay: In vitro selection of HIV-1 resistance in MT-4 cells; type: cell-based; conditions: 1.5-2 fold escalating concentrations, after 35 generations of passage over 7 months
Experimental: The in vitro selection of HIV-1 resistance to peptide inhibitors was performed as described previously. Briefly, MT-4 cells were seeded at 1 × 10^4 in RPMI 1640 medium containing 10% fetal bovine serum on 12-well plates. The molecular clone of HIV-1NL4–3 was used to infect the cells in the presence or absence of diluted peptide inhibitors (SC29EK, MT-SC29EK, SC22EK and MT-SC22EK). The cells were incubated at 37°C with 5% CO2 until an extensive cytopathic effect was observed. The culture supernatants were harvested and used for next passage on fresh MT-4 cells with 1.5-2 fold increasing concentrations of peptide. Cells and supernatant were harvested at regular time points and stored at -80°C.

HIV-1 NL4-3 I37T = assay: Inhibition of T20-resistant HIV-1 variants: I37T; type: cell-based
Experimental: as §1

HIV-1 NL4-3 V38A/N42T = assay: Inhibition of T20-resistant HIV-1 variants: V38A/N42T; type: cell-based
Experimental: as §1

HIV-1NL4-3 pseudovirus = type: cell-based; conditions: 100 TCID50, TZM-bl cells, 48 h, luciferase, mean ± SD of three independent experiments, SD, read-out: IC50 Entry
Experimental: as §1

HIV-1 NL4-3 D36S/V38M = assay: Inhibition of T20-resistant HIV-1 variants: D36S/V38M; type: cell-based
Experimental: as §1

N36 mutant I37T/N43K = target: T2, N36 mutant I37T/N43K (Human immunodeficiency virus type 1 group M subtype B, UniProt P04578, I548T/N554K); assay: CD thermal denaturation of 6-HB formed with N36 mutant I37T/N43K; type: binding, HIV-1; conditions: CHR peptide + N36 I37T/N43K mutant, each 10 μM in PBS
T2 construct: A panel of N36-based peptides carrying a single (I37T, V38A, Q40H, N43K) or double (I37T/N43K and V38A/N42T) NHR mutations; made in house; host or cells: chemical synthesis (solid-phase FMOC), no expression host
Experimental: as §2

wild-type HIV-1NL4-3 = type: cell-based; conditions: wild-type HIV-1NL4-3, 100 TCID50, TZM-bl cells, two days, luciferase; mean ± SD of three independent experiments; SD; read-out: IC50 Replication
Experimental: The inhibition of peptides on HIV-1 replication was determined by a molecular cloned wild-type HIV-1NL4–3. In brief, the virus stock was harvested and quantified 48 h post-transfection. 100 TCID50 viruses were used to infect TZM-bl cells in the presence or absence of serially diluted peptides. Two days post-infection, the cells were harvested and lysed in reporter lysis buffer and the luciferase activity was measured as described above.

[3] = target: T3, NHR peptide N36 (HIV-1 gp41) (Human immunodeficiency virus type 1 group M subtype B, UniProt P04578); assay: CD thermal denaturation of 6-HB formed by CHR peptide and N36; type: binding; conditions: CHR peptide + N36, each 10 μM in PBS pH 7.2; CD at 222 nm, 20-98°C
T3 construct: made in house; host or cells: chemical synthesis (solid-phase FMOC), no expression host
Experimental: as §2

HIV-1 NL4-3 N43K = assay: Inhibition of T20-resistant HIV-1 variants: N43K; type: cell-based
Experimental: as §1

HIV-1 NL4-3 Q40H = assay: Inhibition of T20-resistant HIV-1 variants: Q40H; type: cell-based
Experimental: as §1

HIV-1 NL4-3 I37T/N43K = assay: Inhibition of T20-resistant HIV-1 variants: I37T/N43K; type: cell-based
Experimental: as §1

[4] = target: T3, NHR peptide N36 (HIV-1 gp41); assay: Isothermal titration calorimetry (ITC) with N36; type: binding; conditions: 1 mM N36 injected into 100 μM peptide, 25°C, read-out: binding constant (K) (converted)
Experimental: ITC assay was performed using an ITC200 Microcalorimeter instrument (MicroCal, USA) as described previously. In brief, 1 mM N36 dissolved in ddH20 was injected into the chamber containing 100 μM SC29EK or MT-SC29EK. The experiments were carried out at 25°C. The time between injections was 240 s and the stirring speed was 500 rpm. The heats of dilution were determined in control experiments by injecting N36 into ddH20 and subtracted from the heats produced in the corresponding peptide-peptide binding experiments. Data acquisition and analysis were performed using MicroCal Origin software (version 7.0).

[5] = mean ± SD of three independent experiments, SD
[6] = mean ± SD of three independent experiments

## CC[C@H](C)[C@H](NC(=O)[C@H](CC(C)C)NC(=O)[C@H](CCC(=O)O)NC(=O)[C@H](CCC(=O)O)NC(=O)[C@@H](NC(=O)[C@H](CCCCN)NC(=O)[C@H](CCCCN)NC(=O)[C@@H](NC(=O)[C@H](Cc1ccc(O)cc1)NC(=O)[C@H](CCC(=O)O)NC(=O)[C@H](CCC(=O)O)NC(=O)[C@@H](NC(=O)[C@H](CCCCN)NC(=O)[C@H](CCCCN)NC(=O)[C@H](CC(=O)O)NC(=O)[C@H](Cc1c[nH]c2ccccc12)NC(=O)[C@H](CCC(=O)O)NC(=O)[C@H](CCC(=O)O)NC(=O)[C@H](Cc1c[nH]c2ccccc12)NC(C)=O)[C@@H](C)CC)[C@@H](C)O)[C@@H](C)CC)C(=O)N[C@@H](CCCCN)C(=O)N[C@@H](CCCCN)C(=O)N[C@@H](CO)C(=O)N[C@@H](CCC(=O)O)C(=O)N[C@@H](CCC(=O)O)C(=O)N[C@@H](CCC(N)=O)C(=O)N[C@@H](CCC(N)=O)C(=O)N[C@@H](CCCCN)C(=O)N[C@@H](CCCCN)C(=O)N[C@@H](CC(N)=O)C(N)=O [SC29EK] (Ac-WEEWDKKIEEYTKKIEELIKKSEEQQKKN-NH2)
[1]
  IC50: 14000 nM
HIV-1 NL4-3 V38A
  n-fold relative to the IC50 of the wild-type (WT) virus: 9
HIV-1 NL4-3 V38A; [5]
  IC50: 16.2 ± 1.9 nM
HIV-1 NL4-3 V38M
  n-fold relative to the IC50 of the wild-type (WT) virus: 8.4
HIV-1 NL4-3 V38M; [5]
  IC50: 15.1 ± 1.8 nM
N36 mutant V38A
  Tm of 6-HB: 62.1 °C
HIV-1 NL4-3 WT
  n-fold relative to the IC50 of the wild-type (WT) virus: 1
HIV-1 NL4-3 WT; [5]
  IC50: 1.8 ± 0.2 nM
[2]
  peptide concentration reached during in vitro selection of resistant virus: 2,650 nM
HIV-1 NL4-3 I37T
  n-fold relative to the IC50 of the wild-type (WT) virus: 8.3
HIV-1 NL4-3 I37T; [5]
  IC50: 15 ± 0.3 nM
HIV-1 NL4-3 V38A/N42T
  n-fold relative to the IC50 of the wild-type (WT) virus: 20.9
HIV-1 NL4-3 V38A/N42T; [5]
  IC50: 37.7 ± 6.4 nM
HIV-1NL4-3 pseudovirus
  IC50: 2.2 ± 0.3 nM
HIV-1 NL4-3 D36S/V38M
  n-fold relative to the IC50 of the wild-type (WT) virus: 6.5
HIV-1 NL4-3 D36S/V38M; [5]
  IC50: 11.7 ± 0.7 nM
N36 mutant I37T/N43K
  Tm of 6-HB: 61.1 °C
wild-type HIV-1NL4-3
  IC50: 0.9 ± 0.2 nM
[3]
  Tm (midpoint of the thermal unfolding transition) of 6-HB: 69.1 °C
HIV-1 NL4-3 N43K
  n-fold relative to the IC50 of the wild-type (WT) virus: >138.9
HIV-1 NL4-3 N43K; [6]
  IC50: > 250 nM
HIV-1 NL4-3 Q40H
  n-fold relative to the IC50 of the wild-type (WT) virus: 46.6
HIV-1 NL4-3 Q40H; [5]
  IC50: 83.8 ± 10.8 nM
HIV-1 NL4-3 I37T/N43K
  n-fold relative to the IC50 of the wild-type (WT) virus: >138.9
HIV-1 NL4-3 I37T/N43K; [6]
  IC50: > 250 nM
[4]
  Kd: 71.9 nM
